From a melting point compilation (Tetko et al.; mined from patent text by program, amines drawn as free bases though some values may be those of a salt)

`N#Cc1ccc2c(c1)C(c1ncnc3nn(C4CCCCC4)cc13)C(=O)N2` (configuration not stated) and `O=C(O)c1cn(C2CC2)c2nc(N3Cc4cccc(CO)c4C3)c(F)cc2c1=O` cannot be ordered by melting point: over 325 °C for the first, over 300 °C for the second.

Compared with `CCCCCCC(=O)N[C@H](CCC(=O)O)C(=O)O`, `CCNC(=O)CCCNC(=O)CCCNC(=O)CCCNC(=O)OC(C)(C)C` is higher in melting point: 92 to 96 °C for the first, 170 to 171 °C for the second.

First: CCC(C)c1ccccc1N1C(=O)CS/C1=N\C(=O)Nc1ccc(-c2ncn(-c3ccc(OC(F)(F)F)cc3)n2)cc1 (configuration not stated)
Second: COc1ccc(-c2nc([N+](=O)[O-])n(C(=O)c3ccccc3)c2-c2ccc(OC)cc2)cc1
The melting point of the first is higher: 169 to 177 °C for the first, 161 to 163 °C for the second.

Compared with `CC(C)(C)c1cc(CCC(=O)O)n(Cc2ccc(C(F)(F)F)cc2Cl)n1`, `CCCc1cn(C)cc(-c2cccc(C(F)(F)F)c2)c1=S` is higher in melting point: 128 to 129 °C for the first, 145 to 148 °C for the second.

Compared with `CCc1cc2c(NCCc3ccccc3)ccnc2s1`, `C(=C\c1nc2ccccc2s1)/c1cccc(NCCCc2nnn[nH]2)c1` is higher in melting point: 88 °C for the first, 168 to 169 °C for the second.

First: CCOC(=O)c1cn(-c2ccc(F)cc2F)c2nc(OC)c(F)cc2c1=O
Second: CCOC(=O)c1nc(C)n2c1CN=C(c1ccccc1Cl)c1cc([N+](=O)[O-])ccc1-2
The melting point of the first is lower: 190 to 192 °C for the first, 233 to 234 °C for the second.

First: CCCCNC(=O)Nc1ncc(-c2ccncc2)cn1
Second: Cc1c(-c2ccncc2)oc2c1C(=O)CCC2(C)C
The melting point of the first is higher: 204 to 206 °C for the first, 86 to 88 °C for the second.

First: CCOC(=O)C1CCC2(C)C(=CC(=O)C3C4CCC(=O)C4(C)CCC32)C1 (configuration not stated)
Second: CCON1CCC2(CC1)NC(=O)C(c1c(C)cc(C)cc1C)=C2O
The melting point of the first is lower: 187 to 188 °C for the first, over 250 °C for the second.

First: CCOC(=O)c1cc(C#N)c(C)nc1Nc1ccccc1
Second: Cc1nn(Cc2ccccc2)c(C)c1CC(=O)O
The melting point of the first is higher: 133 to 135 °C for the first, 119 to 121 °C for the second.

First: Fc1ccc(C#Cc2ccnc(Cl)n2)cc1
Second: Clc1ccc2nc(-c3ccsc3)cn2n1
The melting point of the first is lower: 125 to 126 °C for the first, 203 to 205 °C for the second.

Compared with `OCc1cccc2c1ccn2-c1ccnc(N[C@H]2CC[C@H](O)CC2)n1`, `CC(C)=CCN1CCC(=C2c3ccccc3CCn3ccnc32)CC1` is lower in melting point: 212 to 213 °C for the first, 127 °C for the second.

First: Fc1ccc2c(c1F)OCCN2
Second: O=C(O)C1CCc2ccc3[nH]ccc3c21 (configuration not stated)
The melting point of the first is lower: 48 to 54 °C for the first, 166 to 167 °C for the second.

Compared with `Cc1c(-c2ccccc2)oc2c(C(=O)NCC(C)N3CCCCC3)cccc2c1=O` (configuration not stated), `Cn1cc(C(=O)NCc2ccc(Cl)cc2)c(=O)c2cc(CN(CCO)Cc3ccccc3)ccc21` is higher in melting point: 106 to 108 °C for the first, 133 to 135 °C for the second.

Going from `Cc1ccc2nc(S)oc2c1` to `Cc1cccc(-c2nc3ccc(O)cc3n2Cc2ccccc2Br)c1`, the melting point rises from 209 °C to 218 °C.

First: COc1ccc(CC(=O)NCCc2cccc(OC)c2OC)cc1OC
Second: CCOC(=O)Nc1ccc(OC)c(OC)c1
The melting point of the first is higher: 80 °C for the first, 75 to 78 °C for the second.

First: CC(C)n1nc(-c2cnc(Nc3ccccc3)nc2-c2ccccc2)ccc1=O
Second: Cc1oc(-c2ccccc2)nc1COc1ccc(COc2nn(Cc3ccccc3)cc2CC(=O)O)cn1
The melting point of the first is higher: 200 to 202 °C for the first, 87 to 88 °C for the second.

First: CC(C)CNCc1cc2cc(NC(=O)c3ccc(OCC4CCOC4)cc3)ccc2n1C (configuration not stated)
Second: CN(C)C1CCc2oc3ccc(NC(=O)c4ccncc4)cc3c2C1 (configuration not stated)
The melting point of the first is lower: 125 to 126 °C for the first, 146 to 147 °C for the second.

First: Cc1noc(NS(=O)(=O)c2c(C)sc3ccccc23)c1C
Second: CCCCc1c2c(nn1C(C)(C)C)c(N)nc1ccccc12
The melting point of the first is lower: 174 to 176 °C for the first, 222 to 223 °C for the second.

First: COc1ccc2c(c1)c(Cc1nc(-c3ccc(Cl)cc3)cs1)c(C)n2C(=O)c1ccc(Cl)cc1
Second: COc1ccc(-c2nc(C(=O)NCCc3ccccn3)sc2-c2ccc(OC)cc2)cc1
The melting point of the first is higher: 186 to 188 °C for the first, 130 to 132 °C for the second.

First: Fc1ccc(N2CCN(CCCOc3ccc(-n4cccn4)cc3)CC2)cc1
Second: CN1CCN(c2ccccc2OCc2cc(CCC(=O)O)c3c(c2)CC(NS(=O)(=O)c2ccc(Cl)cc2)CC3)CC1 (configuration not stated)
The melting point of the first is higher: 151 to 153 °C for the first, 122 °C for the second.

First: Cc1ccc(C(=O)NCCO)cc1-n1c(C)cc(OCc2ccccc2CNC(=O)Nc2cc(C(C)(C)C)nn2-c2ccc(O)c(Cl)c2)c(Cl)c1=O
Second: COC(=O)Cc1cc(C(=O)c2ccccc2Cl)ccc1O
The melting point of the first is higher: 195 to 196 °C for the first, 119 °C for the second.

First: CCCOc1ccccc1-c1nc(NCCO)cc(=O)[nH]1
Second: COC(=O)C(=O)c1ccc(SCCOc2ccc3ccccc3c2)cc1
The melting point of the first is higher: 164 to 166 °C for the first, 124 to 125 °C for the second.

`Cc1cc(=O)n(-c2cc3c(cc2F)sc(=O)n3CC(N)=O)c(=O)n1C` and `O=c1[nH]c2cc(Cl)ccc2n(CCO)c1=O` cannot be ordered by melting point: over 260 °C for the first, 295 °C for the second.

First: CC(=O)OCC1OC(n2cnc3c(NCC(c4ccccc4)c4ccccc4)nc(Cl)nc32)C(OC(C)=O)C1OC(C)=O (configuration not stated)
Second: CC(=O)N(CCCCCC(=O)O)C(c1ccccc1)c1ccccc1
The melting point of the first is lower: 68 to 71 °C for the first, 119 to 120 °C for the second.

First: C=CCOC(=O)c1ccc(COC(=O)Nc2cnc(-c3ccccc3)n(CC(=O)NC(Cc3ccccc3)C(O)C(F)(F)F)c2=O)cc1 (configuration not stated)
Second: CN(C(=O)C(Cc1c[nH]c2ccccc12)NC(=O)OC(C)(C)C(Cl)(Cl)Cl)C(Cc1ccccc1)C(N)=O (racemic)
The melting point of the first is higher: 126 to 135 °C for the first, 100 to 105 °C for the second.

Compared with `CCCc1ccc(CCCOc2c(C)cc(-c3nnn(C)n3)cc2C)nn1`, `CCCc1nnc2n1-c1ccc(Cl)cc1C(c1ccccc1)=NC2` is higher in melting point: 78 to 80 °C for the first, 176 °C for the second.

Compared with `CC(=O)N(C)c1c(C(=O)c2cccc(C)c2)[nH]c2cc(Cl)ccc12`, `O=Cc1nnc2n1-c1ccc(Cl)cc1C(c1ccccc1)=NC2` is lower in melting point: 166 to 171 °C for the first, 133 to 135 °C for the second.

First: CCCS(=O)(=O)Nc1ccc(-c2ccc(C(=O)O)c(=O)[nH]2)cc1
Second: CC(C)CCSc1cc(C(=O)O)cc(S(N)(=O)=O)c1-c1ccccc1
The melting point of the first is higher: over 260 °C for the first, 70 to 74 °C for the second.

First: CC(Oc1ccc(OC(C)C(=O)O)cc1)C(=O)O (configuration not stated)
Second: CCN(CC)C(=O)COc1ccc(C(=O)CCl)cc1
The melting point of the first is higher: 235 to 240 °C for the first, 89 to 91 °C for the second.

Compared with `CC(CSC#N)n1nnc2cc3c(=O)n(C4CC4)nnc3cc2c1=O` (configuration not stated), `CC1=CC(C)(C)N2C(=O)C(=O)c3cc(C)cc1c32` is lower in melting point: 178 to 180 °C for the first, 157 to 161 °C for the second.

First: Cc1c(F)c(F)c(F)c2c1c(=O)c(C(=O)O)cn2CCO
Second: O=C(O)c1cc(NCc2c(F)c(F)c(C(F)(F)F)c(F)c2F)ccc1O
The melting point of the first is higher: 244 to 247 °C for the first, 179 °C for the second.

Compared with `O=[N+]([O-])c1ccc(CCc2nnco2)cc1`, `Nc1ncnc(OCc2ccccc2)c1[N+](=O)[O-]` is higher in melting point: 93 to 94 °C for the first, 149 to 150 °C for the second.

First: CCOC(=O)Cc1c(C(=O)CC)sc2[nH]c(C(=O)CC)cc12
Second: CC(=O)c1cc2nc(SCc3nccc4c3OCO4)[nH]c2cc1C
The melting point of the first is higher: 147 to 148 °C for the first, 141 to 143 °C for the second.

First: CN(C)CC/C=C1/c2ccccc2CCc2ccc(Br)cc21
Second: CCP1(=O)c2ccccc2CN1c1ccccc1 (configuration not stated)
The melting point of the first is lower: 73 to 75 °C for the first, 116 to 120 °C for the second.

First: O=C(Nc1ccc(Oc2cncc(Cl)c2)nc1)c1ccccc1C(c1ccc(O)cc1)c1ccc(O)cc1
Second: Oc1ccc2c(c1-c1ccccc1)CCCC=C2c1ccc(OCCCCCSc2ccc(C(F)(F)F)cc2)cc1
The melting point of the first is lower: 122 to 125 °C for the first, 189 °C for the second.

Compared with `CCc1[nH]cnc1-c1cc(C(C)(C)C)c(O)c(C(C)(C)C)c1`, `CNC(CC(C)C)c1nc(-c2ccc3c(c2)Nc2ccccc2S3)cs1` (configuration not stated) is lower in melting point: 200 to 201 °C for the first, 146 to 148 °C for the second.

Compared with `CC(=O)c1ccc2c(c1)C(C)(C)CC(=O)N2C`, `COC(=O)c1ccc([N+](=O)[O-])cc1S(=O)(=O)N(C)C` is higher in melting point: 75 to 77 °C for the first, 93 to 96 °C for the second.

First: CNc1nc(-c2cccc(-n3cccc3)c2)c2cc(OC)c(OC)cc2n1
Second: COc1cc(-c2nc3cc(OC)cc(OC)c3c(=O)[nH]2)cc(N2CCN(C(C)C)CC2)c1
The melting point of the first is lower: 199 to 201 °C for the first, 212 to 213 °C for the second.

First: O=Cc1cccc2oc3ccccc3c12
Second: O=C1N[C@H](Cc2ccc(C(F)(F)F)cc2)[C@H](c2cccc3ccccc23)O1 (racemic)
The melting point of the first is lower: 66 to 68 °C for the first, 202 to 203 °C for the second.

First: O=C(NCCO)c1ccc(C(=O)N2CCN(CCO)CC2)nc1
Second: O=C(NCCO)c1cccc(-c2ccc3c(c2)C(Oc2cccc(C(F)(F)F)c2)CC3)c1 (configuration not stated)
The melting point of the first is lower: 126 to 128 °C for the first, 157 to 158 °C for the second.

First: NC(=S)NN=C(CCC(=O)NC1CCCCC1)c1ccccc1
Second: O=C(N[C@@H](CO)c1ccccc1)c1ccco1
The melting point of the first is lower: 89 to 92 °C for the first, 130 to 131 °C for the second.

First: CCCCCCCOCC1OC1CO (configuration not stated)
Second: CCCCc1cc(N)n2nccc2n1
The melting point of the first is lower: 50 to 52 °C for the first, 124 to 126 °C for the second.

First: CSc1ccc(C(C#N)=NO)cc1SC
Second: N#Cc1ccccc1-c1ccc(C(F)(F)F)c(Cl)c1
The melting point of the first is lower: 131 to 133 °C for the first, 138 to 140 °C for the second.

Compared with `O=Cc1cc2c3c(ccc4c3c1CCC4)CCC2`, `COc1ccc2c(c1OC)CCC2=O` is lower in melting point: 102 to 105 °C for the first, 73 to 74 °C for the second.

Compared with `COc1cc(C=CC(=O)c2ccccc2F)cc(OC)c1`, `Cc1nnc2n1-c1sc(C(=O)O)cc1C(c1ccccc1Cl)=NC2` is higher in melting point: 71.6 to 72.5 °C for the first, 302 °C for the second.

First: O[C@@H]1CN(Cc2ccccc2)C[C@H]1Sc1ccccc1 (relative stereo)
Second: O=C(O)c1cc2ccc3c(c2c(-c2ccc4c(c2)OCO4)c1COCc1ccccc1)OCO3
The melting point of the first is lower: 97 to 99 °C for the first, 219 to 221 °C for the second.

Compared with `Cn1ncnc1COc1nn2c(C3CC3)nncc2c1-c1ccccc1F`, `Cc1ncccc1OCC1(c2onc(-c3ccc(O)cc3)c2-c2ccccc2)CC1` is higher in melting point: 97 to 99 °C for the first, 194 to 195 °C for the second.

First: COc1c([N+](=O)[O-])ncn1C
Second: COc1ccc([N+](=O)[O-])c(Br)c1OC
The melting point of the first is higher: 140 to 141 °C for the first, 120 to 122 °C for the second.

First: CCc1nc2c(n1Cc1ccc(OC)cc1)C(=O)N(C)CN2c1ccc(Cl)cc1Cl
Second: COCc1nc2nccnc2c(=O)n1C
The melting point of the first is lower: 116 to 118 °C for the first, 130 to 132 °C for the second.

Compared with `O=C1CCCCN1S(=O)(=O)c1ccc(N2CCCCCC2)cc1`, `Cn1c([N+](=O)[O-])cnc1-c1nnc2ccc(N3CCOCC3)nn12` is higher in melting point: 85 to 88 °C for the first, 240 to 242 °C for the second.

First: Nc1ccn(C2CCCO2)c(=O)n1 (configuration not stated)
Second: O=C1CN2CCCC1C2 (configuration not stated)
The melting point of the first is higher: 193 to 195 °C for the first, 83 to 87 °C for the second.
